Measured values: US12612410B2 (CHILDREN'S HOSPITAL MEDICAL CENTER, priority 2020, dated 2026)

Experiments:
IRAK4 = biological target: T1, IRAK4 (Homo sapiens, UniProt Q9NWZ3); experiment: RBC HotSpot Kinase Assay, IRAK4; type: biochemical; parameters: purchased Reaction Biology (RBC), HotSpot kinase assay; settings: isolated kinase, 33P-ATP
T1 sequence (Q9NWZ3 1-460): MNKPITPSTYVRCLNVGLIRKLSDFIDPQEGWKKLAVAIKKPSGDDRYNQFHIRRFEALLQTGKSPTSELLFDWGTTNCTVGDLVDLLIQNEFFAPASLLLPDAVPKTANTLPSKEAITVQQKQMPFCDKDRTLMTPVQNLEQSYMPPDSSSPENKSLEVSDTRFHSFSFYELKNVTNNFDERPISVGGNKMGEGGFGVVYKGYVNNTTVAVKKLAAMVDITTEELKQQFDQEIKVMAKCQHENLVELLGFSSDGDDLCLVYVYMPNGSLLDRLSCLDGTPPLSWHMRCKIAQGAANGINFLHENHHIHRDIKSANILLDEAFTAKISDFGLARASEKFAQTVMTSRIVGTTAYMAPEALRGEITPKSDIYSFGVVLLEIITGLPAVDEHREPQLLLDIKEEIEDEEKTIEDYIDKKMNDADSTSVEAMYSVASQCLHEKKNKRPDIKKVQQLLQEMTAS
Method in brief: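 Isolated recombinant kinase (possibly truncated or catalytic-domain form) was preincubated with compound for 20 min at room temp in 20 mM Hepes pH 7.5, 10 mM MgCl2, 1 mM EGTA, 0.01% Brij35, 1% DMSO with substrate; 33P-ATP started a 2 h room-temperature reaction, read by P81 filter binding.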

NF-κB [1] = experiment: NF-kB SEAP reporter assay in THP-1-Blue NF-κB cells, hIL1B stimulation; type: cell-based; settings: hIL1B 1 ng/mL, read-out: NF-κB IL1B IC50
Description: (§1) THP-1-Blue NF-xB cells (InvivoGen) carrying a stable integrated NF-κB-inducible secreted embryonic alkaline phosphatase (SEAP) reporter construct were plated at a concentration of 1×10^5 cells per well. The cells were stimulated with Pam3CSK4 (1 ng/mL) or hIL1B (1 ng/mL). After 10-20 minutes, the cells were then treated with vehicle (DMSO) or serial dilutions of the test compounds (10 doses tested for each test compound, with a 1:10 dilution series starting at 1 μM or 3 μM) with a final volume of 200 μL for 24 hours at 37° C. After 24 hours, the cells were centrifuged and 20 μL supernatant was incubated with 180 μL QUANTI-Blue reagent at 37° C. for 30-60 minutes. The levels of NF-κB-induced was measured in a microplate reader at 620 nm.

NF-κB [2] = experiment: NF-kB SEAP reporter assay in THP-1-Blue NF-κB cells, Pam3CSK4 stimulation; type: cell-based; settings: Pam3CSK4 1 ng/mL, read-out: NF-κB Pam3SCK4 IC50
Description: as §1

Compound | IC50 (IRAK4) [nM] | IC50 (NF-κB [1]; 24 hours) [nM] | IC50 (NF-κB [2]; 24 hours) [nM] | IC50 (NF-κB [1]; 24 h) [nM] | IC50 (NF-κB [2]; 24 h) [nM]
CC(O)(c1cn2c(-c3cccc(N[C@H]4CNC[C@@H]4F)n3)cnc2cn1)C(F)(F)F (single isomer, unassigned) [Compound 77] | 3 |  |  |  | 
CC(O)(c1cn2c(-c3cccc(N[C@H]4CNC[C@@H]4F)n3)cnc2cn1)C(F)(F)F (single isomer, unassigned) [Compound 78] | < 0.5 |  |  |  | 
CC(O)(c1cn2c(-c3cccc(N[C@H]4CNCC[C@@H]4F)n3)cnc2cn1)C(F)(F)F (single isomer, unassigned) [Compound 80] | 3 | 124 | 44 |  | 
CC(O)(c1cn2c(-c3cccc(N[C@@H]4CCCNC4)n3)cnc2cn1)C(F)(F)F (single isomer, unassigned) [Compound 81] | < 0.5 |  |  | 72 | 24
CC(O)(c1cn2c(-c3cccc(N[C@H]4CNCC[C@@H]4F)n3)cnc2cn1)C(F)(F)F (single isomer, unassigned) [Compound 82] | < 0.5 | 30 | 12 |  | 
CC1(c2cn3c(-c4cccc(N[C@H]5CNC[C@@H]5F)n4)cnc3cn2)CC1 [Compound 1, N-((3S,4S)-4-fluoropyrrolidin-3-yl)-6-(6-(1-methylcyclopropyl)imidazo[1,2-a]pyrazin-3-yl)pyridin-2-amine] | 0.5 |  |  | 9 | 6
CC1(c2cn3c(-c4cccc(N[C@@H]5CCNC5)n4)cnc3cn2)CC1 [Compound 3, (R)-6-(6-(1-methylcyclopropyl)imidazo[1,2-a]pyrazin-3-yl)-N-(pyrrolidin-3-yl)pyridin-2-amine] | 0.9 |  |  |  | 
CC1(c2cn3c(-c4cccc(N[C@H]5CNCC56CC6)n4)cnc3cn2)CC1 [Compound 5, (R)-N-(6-(6-(1-methylcyclopropyl)imidazo[1,2-a]pyrazin-3-yl)pyridin-2-yl)-5-azaspiro[2.4]heptan-7-amine] | < 0.5 |  |  |  | 
FC(F)(F)C1(c2cn3c(-c4cccc(N[C@@H]5CCNC5)n4)cnc3cn2)CC1 [Compound 10, (R)-N-(pyrrolidin-3-yl)-6-(6-(1-(trifluoromethyl)cyclopropyl)imidazo[1,2-a]pyrazin-3-yl)pyridin-2-amine] | 2 |  |  |  | 
FC(F)c1cn2c(-c3cccc(N[C@H]4CNC[C@@H]4F)n3)cnc2cn1 [Compound 16, 6-(6-(difluoromethyl)imidazo[1,2-a]pyrazin-3-yl)-N-((3S,4S)-4-fluoropyrrolidin-3-yl)pyridin-2-amine] | 1 |  |  | 5 | 11
FC(F)c1cn2c(-c3cccc(N[C@H]4CNCC[C@@H]4F)n3)cnc2cn1 [Compound 25, 6-(6-(difluoromethyl)imidazo[1,2-a]pyrazin-3-yl)-N-((3S,4S)-4-fluoropiperidin-3-yl)pyridin-2-amine] | 1 |  |  | 47 | 12
CC(C)(O)c1cn2c(-c3cccc(N[C@@H]4CCCNC4)n3)cnc2cn1 [Compound 30, (R)-2-(3-(6-(piperidin-3-ylamino)pyridin-2-yl)imidazo[1,2-a]pyrazin-6-yl)propan-2-ol] | < 0.5 | 40 | 28 |  | 
CC(C)(O)c1cn2c(-c3cccc(N[C@H]4CNCC[C@@H]4F)n3)cnc2cn1 [Compound 31, 2-(3-(6-(((3S,4S)-4-fluoropiperidin-3-yl)amino)pyridin-2-yl)imidazo[1,2-a]pyrazin-6-yl)propan-2-ol] | < 0.5 |  |  | 44 | 37
CC(C)(O)c1cn2c(-c3nc(N[C@H]4CNC[C@@H]4F)c(F)cc3F)cnc2cn1 [Compound 33, 2-(3-(3,5-difluoro-6-(((3S,4S)-4-fluoropyrrolidin-3-yl)amino)pyridin-2-yl)imidazo[1,2-a]pyrazin-6-yl)propan-2-ol] | < 0.5 |  |  |  | 
CC(C)(O)c1cn2c(-c3nc(N[C@@H]4CCCNC4)c(F)cc3F)cnc2cn1 [Compound 34, (R)-2-(3-(3,5-difluoro-6-(piperidin-3-ylamino)pyridin-2-yl)imidazo[1,2-a]pyrazin-6-yl)propan-2-ol] | 2 |  |  |  | 
CC(C)(O)c1cn2c(-c3nc(N[C@H]4CNCC[C@@H]4F)c(F)cc3F)cnc2cn1 [Compound 35, 2-(3-(3,5-difluoro-6-(((3S,4S)-4-fluoropiperidin-3-yl)amino)pyridin-2-yl)imidazo[1,2-a]pyrazin-6-yl)propan-2-ol] | 0.8 |  |  | 88 | 23
FC(F)(F)COc1cn2c(-c3cccc(N[C@@H]4CCNC4)n3)cnc2cn1 [Compound 38, (R)-N-(pyrrolidin-3-yl)-6-(6-(2,2,2-trifluoroethoxy)imidazo[1,2-a]pyrazin-3-yl)pyridin-2-amine] | 0.8 |  |  |  | 
Cn1cc(-c2cn3c(-c4cccc(N[C@@H]5CCCNC5)n4)cnc3cn2)cn1 [Compound 43, (R)-6-(6-(1-methyl-1H-pyrazol-4-yl)imidazo[1,2-a]pyrazin-3-yl)-N-(piperidin-3-yl)pyridin-2-amine] | 12 |  |  |  | 
F[C@H]1CNC[C@@H]1Nc1cccc(-c2cnc3cnc(C4CC4)cn23)n1 [Compound 50, 6-(6-cyclopropylimidazo[1,2-a]pyrazin-3-yl)-N-((3S,4S)-4-fluoropyrrolidin-3-yl)pyridin-2-amine] | 0.6 |  |  | 11 | 9
F[C@H]1CCNC[C@@H]1Nc1cccc(-c2cnc3cnc(C4CC4)cn23)n1 [Compound 51, 6-(6-cyclopropylimidazo[1,2-a]pyrazin-3-yl)-N-((3S,4S)-4-fluoropiperidin-3-yl)pyridin-2-amine] | 1 |  |  | 57 | 20
Cn1cc(-c2cn3c(-c4cccc(N[C@H]5CNC[C@@H]5F)n4)cnc3cn2)cn1 [Compound 52, N-((3S,4S)-4-fluoropyrrolidin-3-yl)-6-(6-(1-methyl-1H-pyrazol-4-yl)imidazo[1,2-a]pyrazin-3-yl)pyridin-2-amine] | 1 |  |  |  | 
FC(F)COc1cn2c(-c3cccc(N[C@H]4CNC[C@@H]4F)n3)cnc2cn1 [Compound 58, 6-(6-(2,2-difluoroethoxy)imidazo[1,2-a]pyrazin-3-yl)-N-((3S,4S)-4-fluoropyrrolidin-3-yl)pyridin-2-amine] | 1 |  |  |  | 
O=S1(=O)CCCN1c1cn2c(-c3cccc(N[C@H]4CNCC[C@@H]4F)n3)cnc2cn1 [Compound 97, 2-(3-(6-(((3S,4S)-4-fluoropiperidin-3-yl)amino)pyridin-2-yl)imidazo[1,2-a]pyrazin-6-yl)isothiazolidine 1,1-dioxide] | 6 | 164 | 83 |  | 
O=C1CCCN1c1cn2c(-c3nc(N[C@H]4CNCC[C@@H]4F)c(F)cc3F)cnc2cn1 [Compound 107, 1-[3-[3,5-difluoro-6-[[(3S,4S)-4-fluoro-3-piperidyl]amino]-2-pyridyl]imidazo[1,2-a]pyrazin-6-yl]pyrrolidin-2-one] | 38 | 357 | 37 |  | 
O=C1CCCN1c1cn2c(-c3nc(N[C@@H]4CCCNC4)c(F)cc3F)cnc2cn1 [Compound 108, (R)-1-(3-(3,5-difluoro-6-(piperidin-3-ylamino)pyridin-2-yl)imidazo[1,2-a]pyrazin-6-yl)pyrrolidin-2-one] | 13 |  |  |  | 
O=C1NCCN1c1cn2c(-c3cccc(N[C@H]4CNCC[C@@H]4F)n3)cnc2cn1 [Compound 118, 1-(3-(6-(((3S,4S)-4-fluoropiperidin-3-yl)amino)pyridin-2-yl)imidazo[1,2-a]pyrazin-6-yl)imidazolidin-2-one] | 4 |  |  | 406 | 101
CC(C)(C)c1cn2c(-c3nc(N[C@H]4CNC[C@@H]4F)c(F)cc3F)cnc2cn1 [Compound 125] | 0.7 |  |  |  | 
CC(C)(C)c1cn2c(-c3nc(N[C@@H]4CCCNC4)c(F)cc3F)cnc2cn1 [Compound 126, (R)-6-(6-(tert-butyl)imidazo[1,2-a]pyrazin-3-yl)-3,5-difluoro-N-(piperidin-3-yl)pyridin-2-amine] | 2 |  |  |  | 
CC(C)(C)c1cn2c(-c3nc(N[C@H]4CNCC[C@@H]4F)c(F)cc3F)cnc2cn1 [Compound 127, 6-(6-(tert-butyl)imidazo[1,2-a]pyrazin-3-yl)-3,5-difluoro-N-((3S,4S)-4-fluoropiperidin-3-yl)pyridin-2-amine] | 2 |  |  |  | 
CC(C)(C)c1cn2c(-c3cccc(N[C@H]4CNCC[C@@H]4F)n3)cnc2cn1 [Compound 130, 6-(6-(tert-butyl)imidazo[1,2-a]pyrazin-3-yl)-N-((3S,4S)-4-fluoropiperidin-3-yl)pyridin-2-amine] | 3 |  |  |  | 
